In US8338565B2, “Macrocyclic compounds for inhibition of tumor necrosis factor alpha” (Ensemble Therapeutics Corporation, priority 2008, dated 2012):
Like-named read-outs stand apart in the source and are kept apart here. Numbered stars: 1 amine (or outer) side, 2 acyl side, 3 side chain; on linkers, the order of the positions; unused ones are H or OH. Bridge positions count the residues as written; N and C are the ends. Square brackets hold non-standard residues; d marks the D form. Peptide text beside a SMILES is read from it. Phe(4-(4-pyridyl)) = N[C@@H](Cc1ccc(-c2ccncc2)cc1)C(=O)O; Phe(4-NH2) = Nc1ccc(C[C@H](N)C(=O)O)cc1; d(hPhe) = N[C@H](CCc1ccccc1)C(=O)O; Suc = O=C(CCC(=O)[*:2])[*:1]

What was measured:
[1] = target: T1, TNFα / TNFα receptor (TNFα R1/Fc) (Homo sapiens, UniProt P01375); assay: Inhibition of binding of TNFα to the TNFα receptor (plate ELISA competition); details: Table 2
T1 construct: purchased R&D Systems
In short: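 Plates were coated with TNFα at 15 nM. Test compound and 8.33 nM receptor-Fc (PBST, 2% DMSO) were first mixed in solution for 30 min at room temperature, then transferred to the plates for another 30 min. Competition was read by absorbance at 450 nm after HRP anti-human IgG Fc detection with TMB.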

rat paw edema model = assay: Rat paw edema model (carrageenan), anti-inflammatory activity; assay type: in vivo, Sprague-Dawley (SD) rats; details: 1 mg/kg IV
Method: Compounds 3, 4, 10 and 202 were tested in a rat paw edema model to determine anti-inflammatory activity. Seven groups (one for Vehicle A [15 mL PEG400, 3 mL Graves Grain alcohol (190 proof), 1.8 mL dimethylacetamide and 10.2 mL deionized water] alone as a negative control, one for Vehicle B [0.1M NaHCO3] alone as a negative control, one for each of the four test compounds dissolved in Vehicle A, and one for indomethacin dissolved in Vehicle B as a positive control), each group containing six Sprague-Dawley (SD) rats (180-200 g) randomized by weight. Initial paw volumes were measured by placing the right hind limb of the rat up to the top of the hock in a beaker of water sitting on a scale that had been tared to zero and recording the readout.
Rats were pre-treated with either i) one of the test compounds, or ii) a positive or negative control. Vehicle A alone and test compound dissolved in Vehicle A (Compound 3-1.0 mg/kg; Compound 4-0.4 mg/kg; Compound 10-0.5 mg/kg; Compound 202-0.3 mg/kg) were administered by intravenous injection. Vehicle B alone and indomethacin (5 mg/kg in 0.1M NaHCO3) was administered by intraperitoneal injection. Thirty minutes after this pretreatment, rats were anesthetized and injected with 0.1 mL of carrageenan (10 mg/mL in water) in the subplantar region of the right hind foot using a ½ inch 26 gauge needle attached to a 1 cc syringe.
At 2, 4 and 6 hours post-carrageenan injection, the right hind foot of each rat was measured for paw volume as described above.
We next investigated the effect of varying intravenous doses of Compound 202 (0.05, 0.10, 0.30, and 1.00 mg/kg) in the same model using the same protocol (6 rats per group). […] We also investigated the affect of oral dosing (10 mg/kg) of Compound 202 in the same model. For oral dosing, a 2.5 mg/mL suspension of Compound 202 was prepared in Vehicle A. Rats were orally administered 4 mL/kg of that suspension.

[2] = tested on: TNF-α (degradation of IkB in HeLa cells or A431 cells); assay: Human cell-based assay: inhibition of TNF-α induced degradation of IkB; details: for inhibition at 5 µM: read-out: Inhibition at Various Compound Concentrations, 5 μM; for inhibition at 10 µM: read-out: Inhibition at Various Compound Concentrations, 10 μM
[3] = read-out: Activity (IC50, inhibition of TNFα binding to TNFα R1/Fc)
[4] = 5 μM compound, HeLa or A431 cells
[5] = 10 μM compound, HeLa or A431 cells

T1 sequence (P01375 77-233 limits assumed, species assumed): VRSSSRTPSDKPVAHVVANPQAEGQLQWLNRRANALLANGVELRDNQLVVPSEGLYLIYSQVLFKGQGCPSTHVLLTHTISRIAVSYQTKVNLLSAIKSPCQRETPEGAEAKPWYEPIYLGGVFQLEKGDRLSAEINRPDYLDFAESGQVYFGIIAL

IC50 [1, 3] [µM] | Compound | Change in Paw Volume (rat paw edema model; Table 4, 2 h post-carrageenan) [mL] | Change in Paw Volume (rat paw edema model; Table 4, 4 h post-carrageenan) [mL] | Change in Paw Volume (rat paw edema model; Table 4, 6 h post-carrageenan) [mL] | inhibition at 5 µM [2, 4] [%] | inhibition at 10 µM [2, 5] [%] | Change in Paw Volume (rat paw edema model; Table 6, 2 h post-carrageenan) [mL] | Change in Paw Volume (rat paw edema model; Table 6, 4 h post-carrageenan) [mL] | Change in Paw Volume (rat paw edema model; Table 6, 6 h post-carrageenan) [mL] | inhibition at 5 µM [2] [%] | inhibition at 10 µM [2] [%] | Change in Paw Volume (rat paw edema model; Table 5, 2 h post-carrageenan) [mL] | Change in Paw Volume (rat paw edema model; Table 5, 4 h post-carrageenan) [mL] | Change in Paw Volume (rat paw edema model; Table 5, 6 h post-carrageenan) [mL] | IC50 ([1]; Activity (IC50, inhibition of TNFα binding to TNFα R1/Fc)) [µM] | Change in Paw Volume (rat paw edema model; Table 8, 2 h post-carrageenan) [mL] | Change in Paw Volume (rat paw edema model; Table 8, 4 h post-carrageenan) [mL] | Change in Paw Volume (rat paw edema model; Table 8, 6 h post-carrageenan) [mL]
< 10 | O=C1COc2ccc(cc2)C[C@@H](C(=O)O)NC(=O)[C@H](CCc2ccccc2)NC(=O)[C@@H](Cc2ccc(-c3ccccc3)cc2)NC(=O)[C@H](Cc2cccs2)N1 [Compound 348] |  |  |  | 10 to 50 | 50 to 80 | 1.13 ± 0.10 | 1.30 ± 0.20 | 1.32 ± 0.11 |  |  |  |  |  |  |  |  | 
10 to 30 | O=C1CCC(=O)N[C@H](CCc2ccccc2)C(=O)N[C@@H](Cc2ccc(-c3ccncc3)cc2)C(=O)N[C@H](Cc2ccccc2)C(=O)N[C@H](C(=O)O)Cc2ccc(cc2)N1 [Compound 419] ([d(hPhe)][Phe(4-(4-pyridyl))][dF][Phe(4-NH2)]-OH; linker N-4 via Suc) |  |  |  | < 10 | < 10 |  |  |  |  |  |  |  |  |  | 1.22 ± 0.21 | 1.32 ± 0.18 | 1.16 ± 0.16
< 10 | O=C1CCC(=O)N[C@H](CCc2ccccc2)C(=O)N[C@@H](Cc2ccc(-c3ccncc3)cc2)C(=O)N[C@H](Cc2ccccc2)C(=O)N[C@H](C(=O)N[C@@H](Cc2ccccc2)C(=O)O)Cc2ccc(cc2)N1 [Compound 426] ([d(hPhe)][Phe(4-(4-pyridyl))][dF][Phe(4-NH2)]F-OH; linker N-4 via Suc) |  |  |  | 10 to 50 | 10 to 50 |  |  |  |  |  | 0.90 ± 0.15 | 1.11 ± 0.18 | 1.11 ± 0.23 |  |  |  | 

Further lines, the molecule ahead of its results:

Compound | IC50 [1, 3] [µM] | Change in Paw Volume (rat paw edema model; Table 4, 2 h post-carrageenan) [mL] | Change in Paw Volume (rat paw edema model; Table 4, 4 h post-carrageenan) [mL] | Change in Paw Volume (rat paw edema model; Table 4, 6 h post-carrageenan) [mL] | inhibition at 5 µM [2, 4] [%] | inhibition at 10 µM [2, 5] [%] | Change in Paw Volume (rat paw edema model; Table 6, 2 h post-carrageenan) [mL] | Change in Paw Volume (rat paw edema model; Table 6, 4 h post-carrageenan) [mL] | Change in Paw Volume (rat paw edema model; Table 6, 6 h post-carrageenan) [mL] | inhibition at 5 µM [2] [%] | inhibition at 10 µM [2] [%] | Change in Paw Volume (rat paw edema model; Table 5, 2 h post-carrageenan) [mL] | Change in Paw Volume (rat paw edema model; Table 5, 4 h post-carrageenan) [mL] | Change in Paw Volume (rat paw edema model; Table 5, 6 h post-carrageenan) [mL] | IC50 ([1]; Activity (IC50, inhibition of TNFα binding to TNFα R1/Fc)) [µM] | Change in Paw Volume (rat paw edema model; Table 8, 2 h post-carrageenan) [mL] | Change in Paw Volume (rat paw edema model; Table 8, 4 h post-carrageenan) [mL] | Change in Paw Volume (rat paw edema model; Table 8, 6 h post-carrageenan) [mL]
O=C(O)CCCNC(=O)[C@@H]1Cc2ccc(cc2)OCC(=O)N[C@@H](Cc2cccs2)C(=O)N[C@@H](Cc2ccc(-c3ccccc3)cc2)C(=O)N[C@@H](Cc2ccccc2)C(=O)N1 [Compound 342] | < 10 | 1.36 ± 0.10 | 1.49 ± 0.20 | 1.51 ± 0.15 | < 10 | 10 to 50 |  |  |  |  |  |  |  |  |  |  |  | 
CC(C)(C)Oc1ccc(C[C@@H]2NC(=O)[C@@H](Cc3ccc(-c4ccccc4)cc3)NC(=O)[C@H](Cc3cccs3)NC(=O)COc3ccc(cc3)C[C@@H](C(=O)O)NC2=O)cc1 [Compound 346] | < 10 |  |  |  |  |  | 1.17 ± 0.06 | 1.20 ± 0.09 | 1.34 ± 0.09 | > 80 | 50 to 80 |  |  |  |  |  |  | 
O=C1COc2ccc(cc2)C[C@@H](C(=O)O)NC(=O)[C@H](Cc2ccccc2)NC(=O)[C@H](Cc2ccc(-c3ccc(NC(=O)OCc4ccccc4)cc3)cc2)NC(=O)[C@H](Cc2cccs2)N1 [Compound 362] | < 10 |  |  |  |  |  |  |  |  | < 10 | 10 to 50 | 1.17 ± 0.07 | 1.22 ± 0.21 | 1.15 ± 0.19 |  |  |  | 
O=C1COc2ccc(cc2)C[C@@H](C(=O)N[C@@H](CCc2ccccc2)C(=O)O)NC(=O)[C@H](Cc2ccccc2)NC(=O)[C@@H](Cc2ccc(-c3ccccc3)cc2)NC(=O)[C@H](Cc2cccs2)N1 [Compound 393] |  | 1.24 ± 0.18 | 1.54 ± 0.25 | 1.56 ± 0.17 |  |  | 1.27 ± 0.07 | 1.28 ± 0.08 | 1.42 ± 0.12 | 10 to 50 | > 80 |  |  |  | < 10 |  |  | 
O=C1COc2ccc(cc2)C[C@@H](C(=O)O)NC(=O)[C@H](Cc2ccc(O)cc2)NC(=O)[C@H](Cc2ccc(-c3ccccc3)cc2)NC(=O)[C@H](Cc2cccs2)N1 [Compound 428] | < 10 |  |  |  |  |  |  |  |  | < 10 | < 10 |  |  |  |  | 1.27 ± 0.15 | 1.43 ± 0.22 | 1.39 ± 0.22
